Biological target: T1, hemoglobin (Homo sapiens, UniProt P68871+P69905)
T1 construct: The whole blood samples were collected in heparinized tubes from healthy volunteers; from tissue; host or cells: human whole blood (heparinized) from healthy volunteers
Test: In vitro whole blood studies (multi-point tonometry and blood gas analysis)
Type: cell-based
Procedure: Structure-allosteric activity relationships were determined from the synthetic chiral effectors comparing the shift in the oxygen binding curve of Hb solutions using a Hemox-Analyzer. In vitro biological activity testing in the presence of plasma proteins was also performed on selected enantiomers and racemates (multi-point tonometry and blood gas analysis) to screen for candidates with potential clinical use. SAR studies compared the degree in shift in P50 values, i.e., the partial pressure of molecular oxygen necessary to half-saturate hemoglobin. An effector that decreases Hb oxygen affinity increases the P50 value relative to the control. Thus, the activity or potency of each analog could be expressed by the ratio P50 (effector)/P50(control). Tables and II and III summarize the p50 values obtained using human whole blood, while Tables IV and V summarize the P50 and the Hill coefficient values (n50) at half-saturation obtained using Hemox-analyzer. The slope of the log of the oxygen binding curves is known as the Hill coefficient. The Hill coefficient measures the degree of cooperativity in binding for an allosteric protein, the normal range for human blood is 2.7-3.2. Table VI presents the results from the whole blood studies given as a ΔP50 and Hill coefficient (n50) values for the enantiomers and racemates.
The whole blood samples were collected in heparinized tubes from healthy volunteers and stored over ice. The sodium salts of the compounds were prepared as described earlier. A 200 mM stock solution of the effector was prepared in DMSO. A 5.0 mM test solution was prepared from 50 μL of the 200 mM test solution and 1950 μL of whole blood. The blood samples were incubated in IL 237 tonometers (Instrumentation Laboratories, Inc. Lexington, Mass.) for approximately 10-12 min at 37° C. and equilibrated at three separate concentrations of O2 (20%, 40%, and 60%). After equilibration at each concentration of O2, a sample was removed via syringe and aspirated into a IL 1420 Automated Blood Gas Analyzer (Instrumentation Laboratories, Inc. Lexington, Mass.) and a IL 482 and IL 682 Co-oximeter (Instrumentation Laboratories, Inc. Lexington, Mass.) to determine the pH, pCO2, pO2 and the hemoglobin oxygen saturation values (sO2), respectively. The measured values for pO2 and sO2 at each oxygen saturation level were then subjected to a non-linear regression analysis using the program Scientist (Micromath, Salt Lake City, Utah) to calculate the P50 and Hill coefficient values.

T1 sequence (P69905 2-142 limits assumed): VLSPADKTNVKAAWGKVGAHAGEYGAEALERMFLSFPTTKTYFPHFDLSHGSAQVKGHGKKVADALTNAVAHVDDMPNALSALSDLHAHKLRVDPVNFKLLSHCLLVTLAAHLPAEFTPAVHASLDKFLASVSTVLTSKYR
T1 sequence (P68871 2-147 limits assumed): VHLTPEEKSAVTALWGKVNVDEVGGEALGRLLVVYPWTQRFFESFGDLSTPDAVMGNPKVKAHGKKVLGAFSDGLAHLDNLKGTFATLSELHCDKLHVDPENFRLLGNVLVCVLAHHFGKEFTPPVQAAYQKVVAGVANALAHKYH

| Compound | Whole Blood Δp50 mm Hg (Table III) | Whole Blood Δp50 mm Hg (Table II) |
| --- | --- | --- |
| Cc1cc(C)cc(NC(=O)Cc2ccc(OC3(C(=O)N[C@H](CCCCNC(=O)OCc4ccccc4)C(=O)O)CCCC3)cc2)c1 [Compound 60, N^a-1-[4-(((3,5dimethylanilino)carbonyl)methyl)phenoxy]cyclopentane-carbonyl-N^e-benzyloxycarbonyl-D-lysine] | 14 mm Hg | – |
| CSCCC(NC(=O)C(C)(C)Oc1ccc(CC(=O)Nc2cc(C)cc(C)c2)cc1)C(=O)O (stereo not shown) [Compound 33, 2-(2-(4-((3,5-Dimethyl-phenylcarbamoyl)-methyl)-phenoxy)-2-methyl-propionylamino)-4-methylsulfanyl-butyric acid] | 16 mm Hg | – |
| Cc1cc(C)cc(NC(=O)Cc2ccc(OC3(C(=O)N[C@@H](CSCc4ccccc4)C(=O)O)CCCC3)cc2)c1 [Compound 57, 1-[4-(((3,5-dimethylanilino)carbonyl)methyl)phenoxy]cyclopentanecarbonyl S-benzyl-L-cysteine] | 7 mm Hg | – |
| Cc1cc(C)cc(NC(=O)Cc2ccc(OC3(C(=O)N[C@H](C)C(=O)O)CCCC3)cc2)c1 [Compound 38, 1-[4-(((3,5-dimethylanilino)carbonyl)methyl)phenoxy]cyclopentanecarbonyl-D-alanine] | 30 mm Hg | – |
| Cc1cc(C)cc(NC(=O)Cc2ccc(OC(C)(C(=O)O)c3ccccc3)cc2)c1 (stereo not shown) [Compound 15] | – | 12 mm Hg |
| COC(=O)C(CC(=O)O)NC(=O)C(C)(C)Oc1ccc(CC(=O)Nc2cc(C)cc(C)c2)cc1 (stereo not shown) [Compound 31] | 21 mm Hg | – |
| Cc1cc(C)cc(NC(=O)C2(C)CCc3cc(OC(C)(C)C(=O)O)c(C)c(C)c3O2)c1 (stereo not shown) [Compound 17] | – | 1 mm Hg |
| Cc1cc(C)cc(NC(=O)Cc2ccc(OC(C)(C)C(=O)NC(C(=O)O)C(C)C)cc2)c1 (stereo not shown) [Compound 26] | 20 mm Hg | – |
| COC(=O)C(CCC(=O)O)NC(=O)C(C)(C)Oc1ccc(CC(=O)Nc2cc(C)cc(C)c2)cc1 (stereo not shown) [Compound 30] | 26 mm Hg | – |
| Cc1cc(C)cc(NC(=O)Cc2ccc(OC3(C(=O)N[C@H](CCCCN)C(=O)O)CCCC3)cc2)c1 [Compound 61, 1-[4-(((3,5-dimethylanilino)carbonyl)methyl)phenoxy]cyclopentanecarbonyl-D-lysine] | −0.2 mm Hg | – |
| Cc1cc(C)cc(NC(=O)Cc2ccc(OC(C)(C)C(=O)N3CCCC3C(=O)O)cc2)c1 (stereo not shown) [Compound 35] | 12 mm Hg | – |
| Cc1cc(C)cc(NC(=O)Cc2ccc(OC(C)(C)C(=O)NC(C(=O)O)C(C)C)cc2)c1 (stereo not shown) [Compound 24] | 22 mm Hg | – |
| Cc1cc(C)cc(NC(=O)Cc2ccc(OC(C)(C)C(=O)NC(C(=O)O)C(C)C)cc2)c1 (stereo not shown) [Compound 25] | 20 mm Hg | – |
| Cc1cc(C)cc(NC(=O)Cc2ccc(OC(C)(C)C(=O)NC(Cc3ccccc3)C(=O)O)cc2)c1 (stereo not shown) [Compound 27] | 10 mm Hg | – |
| Cc1cc(C)cc(NC(=O)Cc2ccc(OC3(C(=O)N[C@@H](C(=O)O)C(C)C)CCCC3)cc2)c1 [Compound 42, 1-[4-(((3,5-dimethylanilino)carbonyl)methyl)phenoxy]cyclopentanecarbonyl-D-valine] | 27 mm Hg | – |
| Cc1cc(C)cc(NC(=O)Cc2ccc(OC(C)(C)C(=O)NC(C)C(=O)O)cc2)c1 (stereo not shown) [Compound 23] | 22 mm Hg | – |
| (2-(2-{4-[(3,5-Dimethyl-phenylcarbamoyl)-methyl]-phenoxy}-2-methyl-propionylamino)-4-pentanoic acid [Compound 29] | 10 mm Hg | – |

| Compound | Whole Blood Δp50 mm Hg (Table III) | Whole Blood Δp50 mm Hg (Table II) |
| --- | --- | --- |
| Cc1cc(C)cc(NC(=O)Cc2ccc(OC(C)(C)C(=O)NC(Cc3ccccc3)C(=O)O)cc2)c1 (stereo not shown) [Compound 28] | 20 mm Hg | – |
| Cc1cc(C)cc(NC(=O)Cc2ccc(OC(C)(C)C(=O)NC(C)C(=O)O)cc2)c1 (stereo not shown) [Compound 22] | 17 mm Hg | – |
| Cc1cc(C)cc(NC(=O)Cc2ccc(OC(C(=O)O)c3ccccc3)cc2)c1 (stereo not shown) [Compound 14] | – | 15 mm Hg |
| CSCC[C@H](NC(=O)C1(Oc2ccc(CC(=O)Nc3cc(C)cc(C)c3)cc2)CCCC1)C(=O)O [Compound 52, 1-[4-(((3,5-dimethylanilino)carbonyl)methyl)phenoxy]cyclopentanecarbonyl-L-methionine] | 21 mm Hg | – |
| CCOC(C(=O)Nc1cc(C)cc(C)c1)c1ccc(OC(C)(C)C(=O)O)cc1 (stereo not shown) [Compound 13, 2-{4-[(3,5-Dimethyl-phenylcarbamoyl)-ethoxy-methyl]-phenoxy}-2-methyl-propionic acid] | – | 4 mm Hg |
| Cc1cc(C)cc(NC(=O)Cc2ccc(OC(C)(C)C(=O)NC(CSCc3ccccc3)C(=O)O)cc2)c1 (stereo not shown) [Compound 36, 3-Benzylsulfanyl-2-(2-(4-((3,5-Dimethyl)-phenylcarbamoyl)-methyl-phenoxy)-2-methyl-propionylamino)-propionic acid] | 18 mm Hg | – |
| Cc1cc(C)cc(NC(=O)Cc2ccc(OC3(C(=O)N[C@@H](Cc4c[nH]c5ccccc45)C(=O)O)CCCC3)cc2)c1 [Compound 47, 1-[4-(((3,5-dimethylanilino)carbonyl)methyl)phenoxy]cyclopentanecarbonyl-L-tryptophan] | 20 mm Hg | – |
| CSCCC(NC(=O)C(C)(C)Oc1ccc(CC(=O)Nc2cc(C)cc(C)c2)cc1)C(=O)O (stereo not shown) [Compound 34, 2-(2-(4-((3,5-Dimethyl-phenylcarbamoyl)-methyl)-phenoxy)-2-methyl-propionylamino)-4-methylsulfanyl-butyric acid] | 11 mm Hg | – |
| Cc1cc(C)cc(NC(=O)Cc2ccc(OC3(C(=O)N[C@@H](CCC(=O)O)C(=O)O)CCCC3)cc2)c1 [Compound 48, 1-[4-(((3,5-dimethylanilino)carbonyl)methyl)phenoxy]cyclopentanecarbonyl-L-glutamate] | 22 mm Hg | – |
| Cc1cc(C)cc(NC(=O)Cc2ccc(OC3(C(=O)N[C@@H](Cc4ccccc4)C(=O)O)CCCC3)cc2)c1 [Compound 45, 1-[4-(((3,5-dimethylanilino)carbonyl)methyl)phenoxy]cyclopentanecarbonyl-L-phenylalanine] | 20 mm Hg | – |
| Cc1cc(C)cc(NC(=O)Cc2ccc(OC3(C(=O)N[C@@H](CC(=O)O)C(=O)O)CCCC3)cc2)c1 [Compound 55, 1-[4-(((3,5-dimethylanilino)carbonyl)methyl)phenoxy]cyclopentanecarbonyl-L-aspartate] | 27 mm Hg | – |
| Cc1cc(C)cc(NC(=O)Cc2ccc(OC3(C(=O)N[C@@H](CCCCNC(=O)OCc4ccccc4)C(=O)O)CCCC3)cc2)c1 [Compound 59, N^a-1-[4-(((3,5dimethylanilino)carbonyl)methyl)phenoxy]cyclopentane-carbonyl-N^e-benzyloxycarbonyl-L-lysine] | 0.4 mm Hg | – |
| Cc1cc(C)cc(NC(=O)Cc2ccc(OC(C)(C)C(=O)NC(Cc3c[nH]c4ccccc34)C(=O)O)cc2)c1 (stereo not shown) [Compound 32] | 11 mm Hg | – |
| 1-[4-(((3,5-dimethylanilino)carbonyl)methyl) phenoxy]cyclopentane carbonyl glycine [Compound 37] | 25 mm Hg | – |
| Cc1cc(C)cc(NC(=O)Cc2ccc(OC(C)(C)C(=O)NCC(=O)O)cc2)c1 [KDD4-24] | 17 mm Hg | – |
| Cc1cc(C)cc(NC(=O)C(O)c2ccc(OC(C)(C)C(=O)O)cc2)c1 (stereo not shown) [Compound 12, 2-{4-[(3,5-Dimethyl-phenylcarbamoyl)-hydroxy-methyl]-phenoxy}-2-methyl-propionic acid] | – | 21 mm Hg |
| CCC(Oc1ccc(CC(=O)Nc2cc(C)cc(C)c2)cc1)(C(=O)O)c1ccccc1 (stereo not shown) [Compound 16] | – | 12 mm Hg |

Source: US6894185B2, “Substituted chiral allosteric hemoglobin modifiers” (Allós Therapeutics, Inc., priority 1999, dated 2005)
